pIC50: −log10 of the molar value. Like-named read-outs stand apart in the source and are kept apart here.
Tests used:
HCT116 MTAP KO cells = assay: Inhibitory activity against cell proliferation (CellTiter Glo, 6 days), HCT116 MTAP KO; assay type: cell-based; conditions: for pIC50: Homo sapiens, HCT-116, 144 h, HCT116 MTAP KO cells, 6 days, CellTiter Glo, read-out: HCT116 MTAP KO IC50; for Selectivity HCT 116-WT/ HCT116 MTAP KO: ratio of IC50 HCT116-WT / HCT116 MTAP KO
In short: (§1)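 HCT116 wild-type or MTAP-knockout cells (250/well, McCoy's 5A + 10% FBS) treated after overnight culture with 8-point 4-fold dilutions from 10000 nM for 6 days at 37 °C. Viability read by CellTiter Glo luminescence on day 7; IC50 calculated against DMSO controls.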

HCT116-WT cells = assay: Inhibitory activity against cell proliferation (CellTiter Glo, 6 days), HCT116-WT; assay type: cell-based; conditions: 144 h, HCT116-WT cells, 6 days, CellTiter Glo; read-out: HCT116-WT IC50
In short: as §1

PRMT5-MTA = PRMT5-MTA (Homo sapiens, UniProt O14744); assay: Enzymatic inhibitory activity against PRMT5-MTA (AlphaScreen); assay type: biochemical
In short: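 PRMT5/[…] (1 nM) was preincubated for 30 min at room temperature with 1 µM […] and 2.5 µM SAM, then exposed to compound (10-point, 3-fold from 1000 nM) for 15 min at 23 °C. Histone H4 substrate (5 nM) was added and reacted for 45 min at 23 °C. Symmetric dimethyl-R3 H4 was detected by AlphaScreen and IC50 calculated.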

PRMT5-MTA, sequence (O14744 whole entry): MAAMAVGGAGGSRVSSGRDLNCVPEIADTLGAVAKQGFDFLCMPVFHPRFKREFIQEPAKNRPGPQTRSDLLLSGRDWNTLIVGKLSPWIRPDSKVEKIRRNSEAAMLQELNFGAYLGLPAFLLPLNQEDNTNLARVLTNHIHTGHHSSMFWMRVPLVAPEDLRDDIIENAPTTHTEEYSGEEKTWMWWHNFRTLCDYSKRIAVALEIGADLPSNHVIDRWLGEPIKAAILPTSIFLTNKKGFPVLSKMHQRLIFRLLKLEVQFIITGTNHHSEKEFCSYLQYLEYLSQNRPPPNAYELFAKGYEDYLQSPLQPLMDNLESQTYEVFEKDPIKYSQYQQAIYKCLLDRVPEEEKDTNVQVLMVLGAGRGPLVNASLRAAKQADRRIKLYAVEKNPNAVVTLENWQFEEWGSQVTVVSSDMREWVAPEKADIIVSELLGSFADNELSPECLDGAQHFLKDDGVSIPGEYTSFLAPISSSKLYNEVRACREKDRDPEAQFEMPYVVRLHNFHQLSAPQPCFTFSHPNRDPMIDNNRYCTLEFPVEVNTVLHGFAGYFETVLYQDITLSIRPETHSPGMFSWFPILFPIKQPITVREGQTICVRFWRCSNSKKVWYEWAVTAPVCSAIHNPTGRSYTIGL
PRMT5-MTA, sequence (Q9BQA1 whole entry partner): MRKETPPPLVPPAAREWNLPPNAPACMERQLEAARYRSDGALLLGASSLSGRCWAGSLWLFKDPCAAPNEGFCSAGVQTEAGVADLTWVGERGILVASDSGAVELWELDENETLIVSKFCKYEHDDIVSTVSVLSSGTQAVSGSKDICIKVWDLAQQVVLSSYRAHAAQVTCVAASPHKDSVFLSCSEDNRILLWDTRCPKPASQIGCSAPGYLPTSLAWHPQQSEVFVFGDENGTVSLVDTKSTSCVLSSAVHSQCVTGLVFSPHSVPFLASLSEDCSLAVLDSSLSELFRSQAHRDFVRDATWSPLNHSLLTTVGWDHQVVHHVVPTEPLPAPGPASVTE

| Compound | pIC50 (HCT116 MTAP KO cells) | Selectivity HCT 116-WT/ HCT116 MTAP KO (HCT116 MTAP KO cells) | pIC50 (HCT116-WT cells) | pIC50 (PRMT5-MTA; read-out: IC50) | pIC50 (PRMT5-MTA) |
| --- | --- | --- | --- | --- | --- |
| Cc1cc2cc(C(=O)N(Cc3ccc4ccccc4n3)N(C)c3ncccn3)ccc2nc1N [Example 51, 2-amino-N',3-dimethyl-N'-(pyrimidin-2-yl)-N-(quinolin-2-ylmethyl)quinoline-6-carbohydrazide] | 6.94 | 17.78 | 5.69 | 8.77 |  |
| Cc1cc2cc(C(=O)N(Cc3ccc(C(F)(F)F)cn3)N(C)c3ncc4ccn(C)c4n3)ccc2nc1N [Example 126, 2-amino-N',3-dimethyl-N'-(7-methyl-7H-pyrrolo[2,3-d]pyrimidin-2-yl)-N-((5-(trifluoromethyl)pyridin-2-yl)methyl)quinoline-6-carbohydrazide] | 7.05 | 16.41 | 5.83 | 8.89 |  |
| Cc1cc2cc(C(=O)N(Cc3ccc(-c4ccn(C)c4)cn3)N(C)c3ncccn3)ccc2nc1N [Example 148, 2-amino-N',3-dimethyl-N-((5-(1-methyl-1H-pyrrol-3-yl)pyridin-2-yl)methyl)-N'-(pyrimidin-2-yl)quinoline-6-carbohydrazide] | 6.75 | 17.25 | 5.51 | 9.00 |  |
| Cc1cc2cc(C(=O)N(Cc3ccc(N4CC(F)(F)C4)cn3)N(C)c3ncccn3)ccc2nc1N [Compound 225, 2-amino-N-((5-(3,3-difluoroazetidin-1-yl)pyridin-2-yl)methyl)-N',3-dimethyl-N'-(pyrimidin-2-yl)quinoline-6-carbohydrazide] | 6.69 | 13.00 | 5.58 | 7.80 |  |
| Cc1cc2nc(N)c3cnn(C)c3c2cc1C(=O)N1CC(C)(O)CN1c1ncccc1F (centres unmarked) [Example 427, (4-amino-1,7-dimethyl-1H-pyrazolo[4,3-c]quinolin-8-yl)(2-(3-fluoropyridin-2-yl)-4-hydroxy-4-methylpyrazolin-1-yl)methanone] | 6.63 | >42.55 | < 5.00 | 8.21 |  |
| Cc1cc2cc(C(=O)N(Cc3ccc(C(F)(F)F)cn3)N(C)c3nccc4cccnc34)ccc2nc1N [Example 91, 2-amino-N',3-dimethyl-N'-(1,7-naphthyridin-8-yl)-N-((5-(trifluoromethyl)pyridin-2-yl)methyl)quinoline-6-carbohydrazide] | 7.37 | 39.42 | 5.77 | 8.54 |  |
| Cn1ncc2c(N)nc3cc(Cl)c(C(=O)N4CC(F)(F)CN4c4ccccc4F)cc3c21 [Example 457, (4-amino-7-chloro-1-methyl-1H-pyrazolo [4,3-c]quinolin-8-yl)(4,4-difluoro-2-(2-fluorophenyl)pyrazolidin-1-yl)methanone] | 7.92 | 10.25 | 6.91 | 8.12 |  |
| Cc1cc2nc(N)c3cnn(C)c3c2cc1C(=O)N1CC(C)CN1c1cc(F)ccc1F (centres unmarked) [Example 335, (4-amino-1,7-dimethyl-1H-pyrazolo[4,3-c]quinolin-8-yl)(2-(2,5-difluorophenyl)-4-methylpyrazolidin-1-yl)methanone] | 7.82 | 42.93 | 6.19 | 8.48 |  |
| Cn1ncc2c(N)nc3cc(Cl)c(C(=O)N4CC5(CC5)CN4c4ncc(Br)cc4F)cc3c21 [Example 345, (4-amino-7-chloro-1-methyl-1H-pyrazolo [4,3-c]quinolin-8-yl)(6-(5-bromo-3-fluor opyridin-2-yl)-5,6-diazaspiro[2.4]heptan-5-yl)methanone] | 7.36 | 17.57 | 6.11 | 8.36 |  |
| Cc1cc2cc(C(=O)N(Cc3ccc(-c4cnn(C5CCC5)c4)cn3)N(C)c3ncccn3)ccc2nc1N [Example 149, 2-amino-N-((5-(1-cyclobutyl-1H-pyrazol-4-yl)pyridin-2-yl)methyl)-N',3-dimethyl-N'-(pyrimidin-2-yl)quinoline-6-carbohydr azide] | 7.00 | 16.02 | 5.80 | 8.54 |  |
| Cc1cc2cc(C(=O)N(Cc3ncc(-c4cccnc4)cc3F)N(C)c3ncccn3)ccc2nc1N [Example 222, 2-amino-N-((5-fluoro-[3,3'-bipyridine]-6-yl)methyl)-N',3-dimethyl-N'-(pyrimidin-2-yl)quinoline-6-carbohydrazide] | 7.70 | 16.40 | 6.48 | 8.85 |  |
| Cc1nc(C)c(-c2ccc(CN(C(=O)c3ccc4nc(N)c(C)cc4c3)N(c3ncccn3)C3CC3)nc2)s1 [Example 158, 2-amino-N'-cyclopropyl-N-((5-(2,4-dimethylthiazol-5-yl)pyridin-2-yl)methyl)-3-m ethyl-N'-(pyrimidin-2-yl)quinoline-6-carb ohydrazide] | 7.92 | 18.75 | 6.65 | 8.35 |  |
| C=C1CN(C(=O)c2cc3c(cc2Cl)nc(N)c2cnn(C)c23)N(c2ncc(F)cc2F)C1 [Example 432, (4-amino-7-chloro-1-methyl-1H-pyrazolo [4,3-c]quinolin-8-yl)(2-(3,5-2 fluoropyridin-2-yl)-4-methylenepyrazolidin-1-yl)methanone] | 7.80 | 41.06 | 6.18 | 8.35 |  |
| COc1cc(-c2ccc(CN(C(=O)c3ccc4nc(N)c(C)cc4c3)N(C)c3ncccn3)nc2)cnc1F [Example 199, 2-amino-N-((6'-fluoro-5'-methoxy-[3,3'-bipyridine]-6-yl)methyl)-N',3-dimethyl-N'-(pyrimidin-2-yl)quinoline-6-carbohydrazide] | 6.97 | 18.53 | 5.71 | 8.60 |  |
| Cn1ncc2c(N)nc3cc(Cl)c(C(=O)N4CC(CF)CN4c4ncccc4F)cc3c21 (centres unmarked) [Example 359, (4-amino-7-chloro-1-methyl-1H-pyrazolo[4,3-c]quinolin-8-yl)(4-(fluoromethyl)-2-(3-fluoropyridin-2-yl)pyrazolin-1-yl)methanone] | 7.30 | 23.50 | 5.93 |  | 8.57 |
| Cc1cc2cc(C(=O)N(Cc3ccc(-c4ccccc4)cn3)N(C)c3ncccn3)ccc2nc1N [Example 202, 2-amino-N',3-dimethyl-N-((5-phenylpyridin-2-yl)methyl)-N'-(pyrimidin-2-yl)quin oline-6-carbohydrazide] | 7.13 | 14.26 | 5.98 | 8.54 |  |
| Cn1ncc2c(N)nc3cc(Cl)c(C(=O)N4CC(F)(F)CN4c4ncc(Br)cc4F)cc3c21 [Example 456, (4-amino-7-chloro-1-methyl-1H-pyrazolo [4,3-c]quinolin-8-yl)(2-(5-bromo-3-fluor opyridin-2-yl)-4,4-difluoropyrazolidin-1-yl)methanone] | 7.55 | 68.89 | 5.71 | 8.15 |  |
| COC1CN(C(=O)c2cc3c(cc2Cl)nc(N)c2cnn(C)c23)N(c2ncc(F)cc2F)C1 (centres unmarked) [Example 442, (4-amino-7-chloro-1-methyl-1H-pyrazolo [4,3-c]quinolin-8-yl)(2-(3,5-2 fluoropyridin-2-yl)-4-methoxypyrazolidin-1-yl)methanone] | 7.38 | 15.10 | 6.20 | 8.34 |  |
| Cc1cc2cc(C(=O)N(Cc3ccc(-c4cnsc4)cn3)N(C)c3ncccn3)ccc2nc1N [Example 157, 2-amino-N-((5-(isothiazol-4-yl)pyridin-2-yl)methyl)-N',3-dimethyl-N'-(pyrimidin-2-yl)quinoline-6-carbohydrazide] | 7.85 | 25.79 | 6.44 | 8.16 |  |
| COc1ccnc(N(C)N(Cc2ccc(C(F)(F)F)cn2)C(=O)c2ccc3nc(N)c(C)cc3c2)n1 [Example 76, 2-amino-N'-(4-methoxypyrimidin-2-yl)-N',3-dimethyl-N-((5-(trifluoromethyl)pyridin-2-yl)methyl)quinoline-6-carbohydrazide] | 7.01 | 21.94 | 5.67 | 8.80 |  |

From patent publication EP4745134A1 (Jiangsu Yahong Meditech Co., Ltd., priority 2023, dated 2025)
